From patent US10077243B2, “Compounds for treating disorders mediated by metabotropic glutamate receptor 5, and methods of use thereof” (Sunovion Pharmaceuticals Inc., priority 2009, dated 2018)

Each compound was assayed against T1, human mGluR5 (Homo sapiens, UniProt P41594) (assay: In vitro cell-based FLIPR calcium assay for positive modulation of the activation of mGluR5 by glutamate (PAM EC50)). Details: HEK293/GLAST cells expressing recombinant human mGluR5; FLIPR calcium signal; glutamate added at its EC20; read-out: mGluR5 PAM EC50.
T1 construct: expressed in transfected cells; host or cells: HEK293 cells stably expressing rat GLAST (EAAT1), stably transfected with pcDNAzeo3.1 carrying synthetic human mGluR5 DNA; zeocin-selected single clones
Method in brief: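 PAM activity was measured as FLIPR calcium fluorescence in the presence of an EC20 glutamate concentration determined daily from a glutamate concentration-response curve. Cells were HEK293/GLAST clones expressing mGluR5, dye-loaded at 25 °C for 45–60 min in HEPES-buffered HBSS; vehicle control was 0.3% DMSO.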

T1 sequence (P41594 21-1212): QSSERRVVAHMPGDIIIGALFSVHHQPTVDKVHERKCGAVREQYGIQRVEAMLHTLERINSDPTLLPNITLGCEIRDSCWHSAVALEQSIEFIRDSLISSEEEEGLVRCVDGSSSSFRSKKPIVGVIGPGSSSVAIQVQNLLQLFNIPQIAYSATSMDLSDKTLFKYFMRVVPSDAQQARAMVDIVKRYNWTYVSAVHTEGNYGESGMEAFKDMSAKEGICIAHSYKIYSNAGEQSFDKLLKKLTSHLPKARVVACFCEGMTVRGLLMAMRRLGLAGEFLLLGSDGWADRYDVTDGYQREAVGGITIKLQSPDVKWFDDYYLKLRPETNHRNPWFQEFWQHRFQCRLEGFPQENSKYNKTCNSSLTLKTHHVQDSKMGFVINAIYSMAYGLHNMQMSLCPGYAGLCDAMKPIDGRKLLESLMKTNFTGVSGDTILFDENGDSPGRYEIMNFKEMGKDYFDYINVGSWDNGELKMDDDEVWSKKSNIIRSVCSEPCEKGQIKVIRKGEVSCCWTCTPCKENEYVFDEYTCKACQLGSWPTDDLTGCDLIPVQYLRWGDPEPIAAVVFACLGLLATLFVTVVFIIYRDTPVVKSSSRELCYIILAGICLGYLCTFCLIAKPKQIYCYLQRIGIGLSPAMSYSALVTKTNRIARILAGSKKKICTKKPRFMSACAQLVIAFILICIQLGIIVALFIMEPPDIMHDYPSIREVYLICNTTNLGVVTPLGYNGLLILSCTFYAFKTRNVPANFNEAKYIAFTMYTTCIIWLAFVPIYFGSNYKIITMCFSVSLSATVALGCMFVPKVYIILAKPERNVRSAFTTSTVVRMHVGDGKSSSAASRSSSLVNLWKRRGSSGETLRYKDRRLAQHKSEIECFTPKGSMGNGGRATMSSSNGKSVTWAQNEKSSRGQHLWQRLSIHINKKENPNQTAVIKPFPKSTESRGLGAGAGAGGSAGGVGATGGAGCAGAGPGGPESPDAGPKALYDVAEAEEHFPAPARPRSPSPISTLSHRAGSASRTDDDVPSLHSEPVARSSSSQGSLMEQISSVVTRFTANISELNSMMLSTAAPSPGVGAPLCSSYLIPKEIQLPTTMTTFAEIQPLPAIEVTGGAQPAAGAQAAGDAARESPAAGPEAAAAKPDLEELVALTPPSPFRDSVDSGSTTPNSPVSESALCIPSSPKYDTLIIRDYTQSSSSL

EC50 [nM] | Structure (SMILES)
30 to 100 | CC1(C)Cc2nc3cc(C#Cc4ccccn4)cnc3c(=O)n2C1 [Example 11.10, 7,7-dimethyl-3-(pyridin-2-ylethynyl)-7,8-dihydropyrido[3,2-d]pyrrolo[1,2-a]pyrimidin-10(6H)-one]
30 to 100 | O=c1c2ccc(C#Cc3cccc(F)c3)cc2nc2n1CC/C(=N\O)CC2 [Example 6.23, 3-((3-fluorophenyl)ethynyl)-8-(hydroxyimino)-7,8,9,10-tetrahydroazepino[2,1-b]quinazolin-12(6H)-one]
30 to 100 | COCC1Cc2nc3cc(C#Cc4ccccn4)ccc3c(=O)n2C1 (stereo not shown) [Example 3.19, 2-(methoxymethyl)-6-(pyridin-2-ylethynyl)-2,3-dihydropyrrolo[2,1-b]quinazolin-9(1H)-one]
100 to 300 | O=c1c2ccc(C#Cc3ccccc3C(F)(F)F)cc2nc2n1CCC1(CC2)OCCO1 [Example 7.40]
100 to 300 | Cn1c(CN2CCCC2)nc2cc(C#Cc3cccc(F)c3)ccc2c1=O [Example 2.6, 7-((3-fluorophenyl)ethynyl)-3-methyl-2-(pyrrolidin-1-ylmethyl)quinazolin-4(3H)-one]
300 to 1000 | CCC(C)c1nc2cc(C#Cc3cccc(F)c3)ccc2c(=O)n1C (stereo not shown) [Example 2.14, 2-(sec-butyl)-7-((3-fluorophenyl)ethynyl)-3-methylquinazolin-4(3H)-one]
< 10 | COC1CCc2nc3cc(C#Cc4cccc(F)c4)ccc3c(=O)n2CC1 (stereo not shown) [Example 6.18, 3-((3-fluorophenyl)ethynyl)-8-methoxy-7,8,9,10-tetrahydroazepino[2,1-b]quinazolin-12(6H)-one]
10 to 30 | CC1CCc2nc3cc(C#Cc4ccccn4)cnc3c(=O)n2CC1 (stereo not shown) [Example 11.9, 8-methyl-3-(pyridin-2-ylethynyl)-7,8,9,10-tetrahydropyrido[3′,2′:4,5]pyrimido[1,2-a]azepin-12(6H)-one]
10 to 30 | CC1CCCc2nc3cc(C#Cc4ccccn4)ccc3c(=O)n21 (stereo not shown) [Example 4.18, 9-methyl-3-(pyridin-2-ylethynyl)-8,9-dihydro-6H-pyrido[2,1-b]quinazolin-11(7H)-one]
100 to 300 | O=c1c2ncc(C#Cc3ccccn3)cc2nc2n1CCCCC2 [Example 11.8, 3-(pyridin-2-ylethynyl)-7,8,9,10-tetrahydropyrido[3′,2′:4,5]pyrimido[1,2-a]azepin-12(6H)-one]
< 10 | CC1CCCc2nc3cc(C#Cc4ccccn4)ccc3c(=O)n2C1 (stereo not shown) [Example 6.42, 9-methyl-3-(pyridin-2-ylethynyl)-7,8,9,10-tetrahydroazepino[2,1-b]quinazolin-12(6H)-one]
30 to 100 | O=c1c2ccc(C#Cc3ccc(F)cc3)cc2nc2n1CCOC2 [Example 4.2, 9-((4-fluorophenyl)ethynyl)-3,4-dihydro-[1,4]oxazino[3,4-b]quinazolin-6(1H)-one]
10 to 30 | N#CCN1CCc2nc3cc(C#Cc4cccc(F)c4)ccc3c(=O)n2CC1 [Example 8.14, 2-(8-((3-fluorophenyl)ethynyl)-11-oxo-1,2,4,5-tetrahyrdro-[1,4]diazepino[7,1-b]quinazolin-3(11H)-yl)acetonitrile]
10 to 30 | Cc1noc(C)c1C#Cc1ccc2c(=O)n3c(nc2c1)CCC1(CC3)OCCO1 [Example 7.67]

Continued, compound first:

Structure (SMILES) | EC50 [nM]
O=c1c2ccc(C#CC3CCCC3)cc2nc2n1CCC1(CC2)OCCO1 [Example 7.52] | 300 to 1000
CN(C)CC1CCc2nc3cc(C#Cc4cccc(F)c4)ccc3c(=O)n2C1 (stereo not shown) [Example 4.36, 8-((dimethylamino)methyl)-3-((3-fluorophenyl)ethynyl)-8,9-dihydro-6H-pyrido[2,1-b]quinazolin-11(7H)-one] | 300 to 1000
CC1CCc2nc3cc(C#Cc4ccccn4)cnc3c(=O)n2CC1 (single isomer, unassigned) [11.9a/11.9b slower moving enantiomer (fraction 2), 8-methyl-3-(pyridin-2-ylethynyl)-7,8,9,10-tetrahydropyrido[3′,2′:4,5]pyrimido[1,2-a]azepin-12(6H)-one] | 10 to 30
COCCc1cnc2cc(C#Cc3ccc(F)cc3)ccn2c1=O [Example 13.11, 8-((4-fluorophenyl)ethynyl)-3-(2-methoxyethyl)-4H-pyrido[1,2-a]pyrimidin-4-one] | 10 to 30
CC1(C)CCn2c(nc3cc(CCc4ccccn4)ccc3c2=O)C1 [Example 21.6, 7,7-dimethyl-3-(2-(pyridin-2-yl)ethyl)-8,9-dihydro-6H-pyrido[2,1-b]quinazolin-11(7H)-one] | 300 to 1000
CN1CCc2nc3cc(C#Cc4cccc(F)c4)ccc3c(=O)n2CC1 [Example 8.7, 8-((3-fluorophenyl)ethynyl)-3-methyl-2,3,4,5-tetrahydro-[1,4]diazepino[7,1-b]quinazolin-11(1H)-one] | 30 to 100
O=c1c2ccc(C#Cc3ccccn3)cc2nc2n1C[C@@H]1CCCN1C2 [Example 5.23, (S)-8-(pyridin-2-ylethynyl)-2,3,13,13a-tetrahydro-1H-pyrrolo[1′,2′:4,5]pyrazino[2,1-b]quinazolin-11(5H)-one] | 30 to 100
CN1CCOCC1c1nc2cc(C#Cc3cccc(F)c3)ccc2c(=O)n1C (stereo not shown) [Example 2.9, 7-((3-fluorophenyl)ethynyl)-3-methyl-2-(4-methylmorpholin-3-yl)quinazolin-4(3H)-one] | < 10
COC1(C)CCc2nc3cc(C#Cc4ccccn4)ccc3c(=O)n2C1 (stereo not shown) [Example 4.46, 8-methoxy-8-methyl-3-(pyridin-2-ylethynyl)-8,9-dihydro-6H-pyrido[2,1-b]quinazolin-11(7H)-one] | 10 to 30
CC1Cn2c(nc3cc(C#Cc4ccccn4)ccc3c2=O)CCN1C (stereo not shown) [Example 8.30, 2,3-dimethyl-8-(pyridin-2-ylethynyl)-2,3,4,5-tetrahydro-[1,4]diazepino[7,1-b]quinazolin-11(1H)-one] | 100 to 300
O=c1c2ccc(C#Cc3ccccn3)cc2nc2n1CCC1(CC2)CC1 [Example 6.51, 3-(pyridin-2-ylethynyl)-9,10-dihydro-6H-spiro[azepino[2,1-b]quinazoline-8,1′-cyclopropan]-12(7H)-one] | < 10
CC1CCCc2nc3cc(C#Cc4cccc(F)c4)ccc3c(=O)n21 (stereo not shown) [Example 4.17, 3-((3-fluorophenyl)ethynyl)-9-methyl-8,9-dihydro-6H-pyrido[2,1-b]quinazolin-11(7H)-one] | 10 to 30
CC1Cc2nc3cc(/C=C/c4cccc(F)c4)ccc3c(=O)n2C1 (stereo not shown) [Example 20.14, 6-(3-fluorostyryl)-2,3-dihydro-2-methylpyrrolo[2,1-b]quinazolin-9(1H)-one] | 100 to 300
O=c1c(CO)cnc2cc(C#Cc3cccc(F)c3)ccn12 [Example 13.6, 8-((3-fluorophenyl)ethynyl)-3-(hydroxymethyl)-4H-pyrido[1,2-a]pyrimidin-4-one] | 300 to 1000
CC1CCCn2c(nc3cc(C#Cc4ccccn4)ccc3c2=O)C1 (stereo not shown) [Example 6.36, 7-methyl-3-(pyridin-2-ylethynyl)-7,8,9,10-tetrahydroazepino[2,1-b]quinazolin-12(6H)-one] | 10 to 30
O=c1c2ccc(C#Cc3ccc(F)cn3)cc2nc2n1CCC1(CC2)OCCO1 [Example 7.13] | 30 to 100
CC1(F)CCc2nc3cc(C#Cc4ccccn4)ccc3c(=O)n2CC1 (single isomer, unassigned) [Example 6.48a/6.48b faster moving enantiomer (fraction 1), 8-fluoro-8-methyl-3-(pyridin-2-ylethynyl)-7,8,9,10-tetrahydroazepino[2,1-b]quinazolin-12(6H)-one] | < 10
